16 molecules from US8470829B2 (priority 2004, dated 2013) can be followed below.

Read-outs that look alike come from different tables or passages of the source.

The target in assay [1] is T1, human androgen receptor (Homo sapiens, UniProt P10275).
T1 construct: expressed in transfected cells
T1 sequence (P10275 1-920): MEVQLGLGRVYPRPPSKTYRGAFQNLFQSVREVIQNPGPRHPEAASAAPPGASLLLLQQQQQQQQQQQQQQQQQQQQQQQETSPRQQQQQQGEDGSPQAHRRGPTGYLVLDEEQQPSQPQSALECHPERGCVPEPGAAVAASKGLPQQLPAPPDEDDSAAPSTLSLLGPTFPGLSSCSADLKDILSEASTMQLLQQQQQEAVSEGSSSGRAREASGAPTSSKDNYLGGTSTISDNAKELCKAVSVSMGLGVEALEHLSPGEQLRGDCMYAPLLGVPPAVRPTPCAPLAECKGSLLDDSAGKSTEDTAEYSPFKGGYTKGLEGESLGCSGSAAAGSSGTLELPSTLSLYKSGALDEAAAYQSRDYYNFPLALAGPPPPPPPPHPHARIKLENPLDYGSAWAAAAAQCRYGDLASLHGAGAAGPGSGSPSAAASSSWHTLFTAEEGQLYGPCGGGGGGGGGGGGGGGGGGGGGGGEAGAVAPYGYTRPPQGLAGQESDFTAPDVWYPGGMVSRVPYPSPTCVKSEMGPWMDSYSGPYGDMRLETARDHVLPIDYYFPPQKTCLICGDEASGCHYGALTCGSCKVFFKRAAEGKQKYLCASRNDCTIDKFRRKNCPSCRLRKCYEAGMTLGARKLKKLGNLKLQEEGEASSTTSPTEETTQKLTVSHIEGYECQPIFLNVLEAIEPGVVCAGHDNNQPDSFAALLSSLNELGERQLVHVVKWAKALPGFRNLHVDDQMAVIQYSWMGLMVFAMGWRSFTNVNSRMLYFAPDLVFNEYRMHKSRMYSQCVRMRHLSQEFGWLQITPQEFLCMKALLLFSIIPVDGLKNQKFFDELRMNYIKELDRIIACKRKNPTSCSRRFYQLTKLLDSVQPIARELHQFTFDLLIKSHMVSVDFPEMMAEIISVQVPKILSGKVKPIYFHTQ
As to the kind of experiment: Measurement of agonist effect on androgen receptor (reporter gene assay, 11A11B2 cells). Format: cell-based. The settings on record: compound concentration showing a transcription activity of 5% (0.1 nmol/L DHT = 100%, assay medium alone = 0%), 48 hours. As for the experimental part:
(§1) HeLa cells (purchased from Dai-Nippon Seiyaku K. K.) were cultured overnight in Dulbecco's Modified Eagle Medium containing no phenol red, but containing 3% charcoal-treated fetal bovine serum (hereafter referred to as DCC-FBS) (this medium is hereafter referred to as phenol-red-free DMEM). An MMTV-Luc-Hyg vector (reporter plasmid with mouse mammary tumor virus long terminal repeat, containing an androgen response element and a hygromycin resistance gene: a vector obtained by substituting a chloramphenicol acetyl transferease gene of a GM-CAT vector (A.T.C.C No. 67282) purchased from the A.T.C.C. with the firefly luciferase gene, and inserting a hygromycin resistance gene as a drug resistant gene), and pSG5-hAR-neo (human androgen receptor expression vector: a vector having an androgen receptor gene under the control of the SV40 promoter, and having a neomycin resistance gene inserted as a drug resistance gene) were transfected into the HeLa cells using an FuGENE™ 6 Transfection Reagent (obtained from Roche).
(§2) The clone cells thus obtained (11A11B2 cells) were maintained and propagated using DMEM containing 400 μg/mL neomycin, 200 μg/mL hygromycin and 10% FBS, and were propagated using phenol-red-free DMEM containing 10% DCC-FBS three to four days prior to the performance of an androgen receptor reporter gene assay.
The 11A11B2 cells were inoculated in a white clear-bottomed 96-well microplate (COSTAR) so that the cell concentration was 1.0×10^4/well, and were cultured overnight using phenol-red-free DMEM containing 3% DCC-FBS (hereafter referred to as the assay medium). Samples of the assay medium containing the compounds of the Examples and compounds of the Comparative Examples were added so that the final concentrations of the compounds of the Examples and compounds of the Comparative Examples were 1, 10, 100, 1,000 and 10,000 nmol/L), and the cells were cultured for 48 hours, after which the transcription activity value was measured. The transcription activity was measured using a Bright-Glo™ Luciferase Assay System (Promega).
The transcription activity rates of the compounds of the Examples were calculated from the transcription activity measured by the abovementioned method, with the transcription activity value obtained at 0.1 nmol/L DHT taken as 100%, and the transcription activity value in the case of the assay medium alone taken as 0%. The compound concentration showing a transcription activity of 5% (EC5 value) was calculated from a linear equation for two points on either side of 5%.
In general terms: Reporter assays use an easily measured gene product as a stand-in for the process of interest.

For assay [2], the target named is T1, human androgen receptor. As to the kind of experiment: Investigation of antagonist effect on androgen receptor (reporter gene assay, 11A11B2 cells, with DHT). Format: cell-based. As for the experimental part:
as §1, §2
The 11A11B2 cells were inoculated in a white clear-bottomed 96-well microplate (COSTAR) so that the cell concentration was 1.0×10^4/well, and were cultured overnight. The assay medium containing DHT was added so that the final concentration of DHT was 0.1 nmol/L, and samples of the assay medium containing the compounds of the Examples or compounds of the Comparative Examples were added so that the final concentrations of the compounds of the Examples or compounds of the Comparative Examples were 1, 10, 100, 1,000 and 10,000 nmol/L, respectively. After culturing for 48, hours, the transcription activity values were measured. The transcription activity was measured using a Bright-Glo™ Luciferase Assay System (Promega).
The transcription activity rates of the compounds of the Examples were calculated from the transcription activity measured by the abovementioned method, with the transcription activity value obtained at 0.1 nmol/L DHT taken as 100%, and the transcription activity value in the case of the assay, medium alone taken as 0%.

Setting [3] is: with 0.1 nmol/L DHT, transcription activity rate of Test Example 1 subtracted, 11A11B2 cells, 48 hours, read-out: IC50.

In turn, `CN(C)CCCOC(=O)Nc1cc(N2C(=O)N(c3ccc(C#N)c(C(F)(F)F)c3)C(=O)C2(C)C)ccc1Cl` [Example 32, {2-chloro-5-[3-(4-cyano-3-trifluoromethylphenyl)-5,5-dimethyl-2,4-dioxoimidazolidin-1-yl]phenyl}-carbamic acid 3-dimethylaminopropyl ester] displayed an EC5 at human androgen receptor [1] above 10 µM. Also, the midpoint of inhibition on human androgen receptor [2], the IC50, lay at 500 nM.

With `CC1(C)C(=O)N(c2ccc(C#N)c(C(F)(F)F)c2)C(=O)N1c1ccc(Cl)c(NC(=O)OCCCCO)c1` [Example 33, {2-chloro-5-[3-(4-cyano-3-trifluoromethylphenyl)-5,5-dimethyl-2,4-dioxoimidazolidin-1-yl]phenyl}-carbamic acid 4-hydroxybutyl ester], the EC5 on human androgen receptor [1] is above 10 µM. The molecule also came in with an IC50 at human androgen receptor [2] of 300 nM.

Take `CN(C)CCOC(=O)N1CCC(N2C(=S)N(c3ccc(C#N)c(C(F)(F)F)c3)C(=O)C2(C)C)CC1` [Example 36]: the EC5 on human androgen receptor [1] was above 10 µM. Moreover, the IC50 against human androgen receptor [2] came to 500 nM.

On human androgen receptor [1], `CC1(C)C(=O)N(c2ccc(C#N)c(C(F)(F)F)c2)C(=O)N1c1ccc(Cl)c(NC(=O)OCCN)c1` [Example 37, {2-chloro-5-[3-(4-cyano-3-trifluoromethylphenyl)-5,5-dimethyl-2,4-dioxoimidazolidin-1-yl]phenyl}-carbamic acid 2-aminoethyl ester] returned an EC5 above 10 µM. The IC50 at human androgen receptor [2] (setting [3]) amounted to 700 nM.

Turning to `CCCNC(=O)N1CCC(N2C(=S)N(c3ccc(C#N)c(C(F)(F)F)c3)C(=O)C2(C)C)CC1` [Example 39, 4-[3-(1-n-propylaminocarbonylpiperidin-4-yl)-4,4-dimethyl-5-oxo-2-thioxoimidazolidin-1-yl]-2-trifluoromethylbenzonitrile], the EC5 on human androgen receptor [1] was above 10 µM. For the same molecule, the IC50 at human androgen receptor [2] (setting [3]) stood at 900 nM.

At human androgen receptor [1], `CCCNC(=O)N1CCC(N2C(=S)N(c3ccc(C#N)c(Cl)c3)C(=O)C2(C)C)CC1` [Example 41, 4-[3-(1-n-propylaminocarbonylpiperidin-4-yl)-4,4-dimethyl-5-oxo-2-thioxoimidazolidin-1-yl]-2-chlorobenzonitrile] came in with an EC5 above 10 µM. Also, the IC50 at human androgen receptor [2] is 500 nM.

At human androgen receptor [1], `CC1(C)C(=O)N(c2ccc(C#N)c(C(F)(F)F)c2)C(=S)N1c1ccc(Cl)c(NC(=O)OCCO)c1` [Example 46, {2-chloro-5-[3-(4-cyano-3-trifluoromethylphenyl)-5,5-dimethyl-4-oxo-2-thioxoimidazolidin-1-yl]phenyl}-carbamic acid 2-hydroxyethyl ester] yielded an EC5 above 10 µM. Besides, inhibition against human androgen receptor [2] was half-maximal at 300 nM (IC50).

As to `CC1(C)C(=O)N(c2ccc(C#N)c(Cl)c2)C(=S)N1c1ccc(Cl)c(NC(=O)OCCO)c1` [Example 47, {2-chloro-5-[3-(4-cyano-3-chlorophenyl)-5,5-dimethyl-4-oxo-2-thioxoimidazolidin-1-yl]phenyl}carbamic acid 2-hydroxyethyl ester], the EC5 at human androgen receptor [1] was above 10 µM. The same molecule gave an IC50 at human androgen receptor [2] of 300 nM.

The molecule `COc1cc(N2C(=O)C(C)(C)N(c3ccc(Cl)c(NC(=O)OCCO)c3)C2=S)ccc1C#N` [Example 48, {2-chloro-5-[3-(4-cyano-3-methoxyphenyl)-5,5-dimethyl-4-oxo-2-thioxoimidazolidin-1-yl]phenyl}-carbamic acid 2-hydroxyethyl ester] had an EC5 on human androgen receptor [1] above 10 µM. Besides, the IC50 on human androgen receptor [2] (setting [3]) stood at 500 nM.

For `CC1(C)C(=O)N(c2ccc(C#N)c(C(F)(F)F)c2)C(=S)N1c1ccc(Cl)c(NC(=O)OCC(O)CO)c1` (centres unmarked) [Example 49, {2-chloro-5-[3-(4-cyano-3-trifluoromethylphenyl)-5,5-dimethyl-4-oxo-2-thioxoimidazolidin-1-yl]phenyl}-carbamic acid 2,3-dihydroxypropyl ester], on human androgen receptor [1], the EC5 is above 10 µM. Moreover, at human androgen receptor [2], it took 300 nM to reach half-maximal inhibition (IC50).

`CC1(C)C(=O)N(c2ccc(C#N)c(Cl)c2)C(=S)N1c1ccc(Cl)c(NC(=O)OCC(O)CO)c1` (centres unmarked) [Example 50, {2-chloro-5-[3-(4-cyano-3-chlorophenyl)-5,5-dimethyl-4-oxo-2-thioxoimidazolidin-1-yl]phenyl}-carbamic acid 2,3-dihydroxypropyl ester]: the EC5 at human androgen receptor [1] is above 10 µM. At human androgen receptor [2], the IC50 came to 300 nM.

In turn, `CN(C)CCOC(=O)Nc1cc(N2C(=S)N(c3ccc(C#N)c(C(F)(F)F)c3)C(=O)C2(C)C)ccc1Cl` [Example 52, {2-chloro-5-[3-(4-cyano-3-trifluoromethylphenyl)-5,5-dimethyl-4-oxo-2-thioxoimidazolidin-1-yl]phenyl}-carbamic acid 2-dimethylaminoethyl ester] returned an EC5 on human androgen receptor [1] above 10 µM. The midpoint of inhibition on human androgen receptor [2], the IC50, lay at 300 nM.

As for `COc1cc(N2C(=O)C(C)(C)N(c3ccc(Cl)c(NC(=O)OCCN(C)C)c3)C2=S)ccc1C#N` [Example 54, {2-chloro-5-[3-(4-cyano-3-methoxyphenyl)-5,5-dimethyl-4-oxo-2-thioxoimidazolidin-1-yl]phenyl}-carbamic acid 2-dimethylaminoethyl ester], on human androgen receptor [1], the EC5 is above 10 µM. Also, on human androgen receptor [2] (setting [3]), the IC50 is 500 nM.

`CC1(C)C(=O)N(c2ccc(C#N)c(C(F)(F)F)c2)C(=S)N1c1ccc(Cl)c(NC(=N)N)c1` [Example 55, N-{2-chloro-5-[3-(4-cyano-3-trifluoromethylphenyl)-5,5-dimethyl-4-oxo-2-thioxoimidazolidin-1-yl]phenyl}guanidine] gave an EC5 on human androgen receptor [1] above 10 µM. This molecule also displayed an IC50 at human androgen receptor [2] of 700 nM.

`CC1(C)C(=O)N(c2ccc(C#N)c(C(F)(F)F)c2)C(=S)N1c1ccc(S(N)(=O)=O)cc1` [Example 56, 4-[3-(4-cyano-3-trifluoromethylphenyl)-5,5-dimethyl-4-oxo-2-thioxoimidazolidin-1-yl]benzenesulfonamide] gave an EC5 on human androgen receptor [1] above 10 µM. The IC50 on human androgen receptor [2] (setting [3]) worked out at 400 nM.

`CN(C)CCOC(=O)Nc1ccc(N2C(=S)N(c3ccc(C#N)c(C(F)(F)F)c3)C(=O)C2(C)C)cn1` [Example 58, {5-[3-(4-cyano-3-trifluoromethylphenyl)-5,5-dimethyl-4-oxo-2-thioxoimidazolidin-1-yl]pyridin-2-yl}carbamic acid 2-dimethylaminoethyl ester] had an EC5 at human androgen receptor [1] above 10 µM. Half-maximal inhibition against human androgen receptor [2] (IC50) was put at 500 nM.

As usually defined, the IC50 is the concentration at which inhibition is half-maximal.
